Experimental data from PubChem BioAssay (NCI).
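Results reflect a 48-hour exposure of cells in 96-well plates to compound at five concentrations. TGI is the concentration that stops growth completely.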

Assays:
Experiment in all cases: NCI anticancer screen, dose series, 48 h
[1] = tested on: DU-145 prostate
[2] = tested on: K-562 leukemia
[3] = tested on: M14 melanoma
[4] = tested on: MOLT-4 leukemia
[5] = tested on: NCI-H460 lung
[6] = tested on: OVCAR-8 ovarian
[7] = tested on: PC-3 prostate
[8] = tested on: SF-268 CNS
[9] = tested on: SK-MEL-5 melanoma
[10] = tested on: UACC-62 melanoma
[11] = tested on: HS 578T breast

Structure (SMILES) | TGI [1] | TGI [2] | TGI [3] | TGI [4] | TGI [5] | TGI [6] | TGI [7] | TGI [8] | TGI [9] | TGI [10] | TGI [11]
Cn1c(=O)c2nc3nnc(C#N)c(N)n3c2n(C)c1=O | > 100 µM | > 100 µM | > 100 µM | > 100 µM | > 100 µM | > 100 µM | > 100 µM | > 100 µM | > 100 µM | > 100 µM | 
Cc1nc2c(n1CCC(C)C)C(=O)c1ccccc1C2=O |  | 69.1 µM | 38 µM | 76.2 µM | 21.1 µM | > 100 µM |  | 43.1 µM | 28.4 µM | 27 µM | 
CNC(=O)c1n[nH]n(Cc2ccccc2)c1=S | > 100 µM | > 100 µM | > 100 µM | > 100 µM | > 100 µM | > 100 µM | > 100 µM |  | > 100 µM | > 100 µM | 
NC(CCCCN=Cc1nc(-c2ccccc2)oc1O)C(=O)O (stereo not drawn) |  | > 100 µM | > 100 µM | > 100 µM | > 100 µM | > 100 µM |  | > 100 µM | > 100 µM | > 100 µM | 
COc1cc2c(oc(=O)c3cc4ccoc4c(OC)c32)c2cccc(O)c12 |  | > 100 µM | > 100 µM | > 100 µM | > 100 µM | > 100 µM |  | > 100 µM | > 100 µM | > 100 µM | 
COC(=O)c1cc(-c2ccc(-c3ccc(O)cc3)cc2)cc(-c2ccc(-c3ccc(O)cc3)cc2)c1 |  | 17.6 µM | 30.5 µM | 22.1 µM | 35 µM |  | 31 µM | 17.8 µM | 30.7 µM |  | 
O=C1N(CN2CCOCC2)CN(CN2CCOCC2)C(=O)N1Cc1ccccc1 | 63.9 µM | 51.4 µM | 33.3 µM | 39.3 µM | > 100 µM | 43.4 µM | > 100 µM | 53.1 µM | 44.2 µM | 49.4 µM | 
CN(C)CCCNC(=O)c1cc(NC(=O)c2cc(NC(=O)[C@H]3C[C@@H]3C(=O)Nc3cc(C(=O)Nc4cc(C(=O)NCCCN(C)C)n(C)c4)n(C)c3)cn2C)cn1C | > 100 µM | > 100 µM | > 100 µM | > 100 µM | > 100 µM | > 100 µM | > 100 µM | > 100 µM | > 100 µM |  | 
O=c1oc2cc(O)ccc2cc1-c1nc2ccccc2s1 | > 100 µM | > 100 µM | 82.9 µM | 17.4 µM | 62.2 µM | > 100 µM | 52.5 µM |  | 28.5 µM | 41.7 µM | 
O=C(O)C(Cc1cnc[nH]1)N=Cc1nc(-c2ccccc2)oc1O (stereo not drawn) |  | > 100 µM | > 100 µM | > 100 µM | > 100 µM | > 100 µM |  | > 100 µM | > 100 µM | > 100 µM | 
CCN(CC)c1nc(N(C)C)c2ccc(OC)cc2n1 |  | 66.6 µM | 22.2 µM | 22.1 µM | 26.5 µM | > 100 µM | 54.8 µM | > 100 µM | 24.7 µM | 24.8 µM | > 100 µM
C[C@@H]1OC(=O)C[C@H]2CC(=O)N(CCC3CN(S(=O)(=O)C(F)(F)F)c4ccc(Cc5ccc6c(c5)C(CCN5C[C@H]7[C@@H](CC(=O)O[C@H]7C)CC5=O)CN6S(=O)(=O)C(F)(F)F)cc43)C[C@@H]21 (stereo partly drawn) | > 100 µM | > 100 µM | > 100 µM | > 100 µM | > 100 µM | > 100 µM | > 100 µM | > 100 µM | > 100 µM | > 100 µM | 
NC(CCCNc1cccc(O)c1)C(=O)O (stereo not drawn) |  | > 100 µM | > 100 µM | > 100 µM | > 100 µM | > 100 µM |  | > 100 µM | > 100 µM | > 100 µM | 
C=CCOC(=O)CCCCCCCCCCCCCCCOC(=O)c1c(CCC[C@@H](C)O[Si](C)(C)C(C)(C)C)nc(=O)n2c1CC[C@H]2CC1(CC/C=C\[C@H](CC)O[Si](C(C)C)(C(C)C)C(C)C)OCCO1 | > 100 µM |  | > 100 µM |  | > 100 µM |  | > 100 µM | > 100 µM | 46.8 µM | > 100 µM | 
CC(=O)[O-].CC(=O)[O-].O=C(N/N=C/c1cc(Cl)cc(Cl)c1[OH2+])c1ccncc1.[Zn+2] |  | > 100 µM | > 100 µM | > 100 µM | > 100 µM | > 100 µM |  | > 100 µM | > 100 µM | > 100 µM | 
CCCC(=O)/C=C/S/C=C/C(=O)CCC | 27.1 µM |  | 9 µM |  | > 100 µM | 5.46 µM |  | > 100 µM | 16.1 µM | 29.8 µM | 36.3 µM
O=C1c2ccccc2C(=O)C2C3c4ccccc4C(c4ccccc43)C12 (stereo not drawn) |  | 32.2 µM | > 100 µM | 27.9 µM | > 100 µM | 42.3 µM |  | 34.9 µM |  | > 100 µM | 
O=C(Nc1ccccc1)Nn1c(-c2cccs2)nc2ccc(I)cc2c1=O | 52.3 µM | 10.4 µM | > 100 µM |  | > 100 µM | > 100 µM | > 100 µM | > 100 µM | 40.7 µM | > 100 µM | 
